Measured values from US20150094327A1, “COMPOSITIONS AND METHODS FOR […]” (priority 2012, published 2015).
Entries after “also recorded” stand apart in the source; their conditions may differ. Like-named read-outs stand apart in the source and are kept apart here.

What was measured:
vaccinia virus WR = assay: microbe, parasite or virus in culture; type: cell-based; conditions: for IC50: Orthopoxvirus vaccinia
fowlpox resolvase = assay: Holliday junction substrate cleavage by fowlpox resolvase, gel based assay; type: biochemical, fowlpox virus; conditions: authentic Holliday junction substrates in vitro
[1] = Cytotoxicity, CellTiter-Glo Luminescent Cell Viability Assay; conditions: for Cytotoxicity, LD50: CellTiter-Glo; for cytotoxicity: compared with compound 1
variola topoisomerase = variola topoisomerase (Variola virus, UniProt P32989); type: biochemical
fowlpox virus resolvase = biological target: T1, fowlpox virus resolvase (Fowlpox virus, UniProt Q9J546); assay: Fluorescence polarization (FP) assay of bulged DNA substrate cleavage by fowlpox resolvase; type: biochemical; conditions: for activity in the FP assay: compared with compound 1 or with the N-hydroxy parent; for IC50: off-center bulge substrate 2 nM, 10 nM fowlpox resolvase, 37° C., 1 hr
T1 sequence (Q9J546 1-156): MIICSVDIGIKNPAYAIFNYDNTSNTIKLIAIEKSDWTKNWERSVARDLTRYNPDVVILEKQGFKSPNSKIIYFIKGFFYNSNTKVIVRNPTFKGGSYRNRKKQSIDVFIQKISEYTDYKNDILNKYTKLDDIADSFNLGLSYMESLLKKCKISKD

[2] = 48 h, read-out: Antiviral assay, IC50

Chain of variola topoisomerase (P32989 whole entry, looked up): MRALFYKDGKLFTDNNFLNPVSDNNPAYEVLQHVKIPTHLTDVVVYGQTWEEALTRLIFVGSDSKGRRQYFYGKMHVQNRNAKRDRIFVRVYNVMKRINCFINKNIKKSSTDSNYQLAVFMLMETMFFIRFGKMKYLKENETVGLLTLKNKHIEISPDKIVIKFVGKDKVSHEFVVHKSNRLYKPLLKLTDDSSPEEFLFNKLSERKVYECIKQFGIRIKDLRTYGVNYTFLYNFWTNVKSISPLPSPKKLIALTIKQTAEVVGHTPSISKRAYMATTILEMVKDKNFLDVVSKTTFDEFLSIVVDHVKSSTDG

SMILES | IC50 (vaccinia virus WR; [2]) [µM] | IC50 (vaccinia virus WR; read-out: antiviral assays IC50) [µM] | inhibition of Holliday junction cleavage (fowlpox resolvase) | Cytotoxicity, LD50 [1] [µM] | antiviral activity (vaccinia virus WR) | inhibition of variola topoisomerase activity (variola topoisomerase) | Log P (Log P (hydrophobicity)) | cytotoxicity [1] | activity in the FP assay (fowlpox virus resolvase) | IC50 (fowlpox virus resolvase) [µM]
O=c1c(-c2ccccc2)c(O)c2cc(-c3cccc(-c4ccccc4)c3)cnc2n1O [Compound 1, 6-(Biphenyl-3-yl)-1,4-dihydroxy-3-phenyl-1,8-naphthyridin-2(1/H)-one] | 4 ± 1 | 4 | effective inhibition | 13 ± 4 |  |  |  |  |  | 
CCOC(=O)c1c(O)c2cc(-c3cccc(OC)n3)cnc2n(O)c1=O [Compound 7, Ethyl 1,4-dihydroxy-6-(6-methoxypyridin-2yl)-2-oxo-1,2-dihydro-1,8-naphthyridine-3-carboxylate] | 25 ± 16 |  | inhibition of cleavage | 156 ± 28 | slightly increased; also recorded: showed antiviral activity at concentrations below cytotoxic levels | no Inhibitory activity; also recorded: lack of inhibition | 1.43 | greatly increased | slight increase over compound 1 | 11 ± 2
O=c1c(-c2ccccc2)c(O)c2cc(CCc3ccc(C(F)(F)F)cc3)cnc2n1O [Compound 2, 1,4-Dihydroxy-3-phenyl-6-(4-(trifluoromethyl)phenethyl)-1,8-naphthyridin-2(1H)-one] | 4 ± 1 |  |  | 15 ± 12 |  |  | 4.94 | no reduction in cytotoxicity | slightly less potent | 3 ± 2
CCOC(=O)c1c(O)c2cc(-c3cccc(OC)n3)cnc2n(OCc2ccccc2)c1=O [Compound 8, Ethyl 1-(benzyloxy)-4-hydroxy-6-(6-methoxypyridin-2-yl)-2-oxo-1,2-dihydro-1,8-naphthyridine-3-carboxylate] | > 350 |  |  |  |  |  | 3.54 |  | abolished activity | > 250
COc1ccc(CCc2cnc3c(c2)c(O)c(-c2ccccc2)c(=O)n3O)cc1 [Compound 4, 1,4-Dihydroxy-6-(4-methoxyphenethyl)-3-phenyl-1,8-naphthyridin-2(1H)-one] | 11 ± 1 |  |  | 10 ± 1 |  |  |  | no reduction in cytotoxicity | slightly less potent | 
CCOC(=O)c1c(O)c2cc(/C=C/c3ccc(C(F)(F)F)cc3)cnc2n(OCc2ccccc2)c1=O [Compound 6, (E)-Ethyl 1-(benzyloxy)-4-hydroxy-2-oxo-6-(4-(trifluoromethyl)styryl)-1,2-dihydro-1,8-naphthyridine-3-carboxylate] | > 350 |  |  |  |  |  | 5.50 |  | abolished activity | > 250
CCOC(=O)c1c(O)c2cc(CCc3ccc(C(F)(F)F)cc3)cnc2n(O)c1=O [Compound 5, Ethyl 1,4-dihydroxy-2-oxo-6-(4-(trifluoromethyl)phenethyl)-1,2-dihydro-1,8-naphthyridine-3-carboxylate] | 12 ± 1 |  |  | 20 ± 12 |  |  | 3.60 |  |  | 14 ± 7
O=c1c(-c2ccccc2)c(O)c2cc(/C=C/c3ccc(C(F)(F)F)cc3)cnc2n1OCc1ccccc1 [Compound 3] | > 350 |  |  |  |  |  | 6.85 |  |  | > 250
